Experimental data as given in patent publication US20130178453A1, “Cannabinoid Agonists” (priority 2010, published 2013).
Read-outs that look alike come from different tables or passages of the source.

Assays:
hCB1 [1] = target: T1, hCB1 (Homo sapiens, UniProt P21554); assay: hCB1 radioligand binding assay ([3H]-CP 55,940 displacement); conditions: hCB1 IC50 (CP displ, nM, HEK), HEK membranes
From the text: (§1) cDNA expression clones for human CB 1 (hCB1, Genbank Accession No. AY225225) and human CB2 (hCB2, Genbank Accession No. AY242132) expressed in vector pcDNA3.1+ were purchased from UMR cDNA Resource Center, Rolla, Mo. (Clone ID CNR01L000 for hCB1; CNR0200000 for hCB2).
Stable, HEK-293-derived cell lines that recombinantly express hCB1 or hCB2 were established. In brief, the clone hCB1 (CNR1L) or hCB2 (CNR2) was transfected into human embryonic kidney cells (HEK-293) using Lipofectamine 2000 (Gibco, Cat#11668-019) according to the manufacturer's protocol. Transfected clones were isolated by single colony purification and clones were screened for receptor expression using a whole cell, ^3H—CP 55,940 radioligand binding assay. HEK-293 stable cells were maintained in Dulbecco's modified Eagles medium (DMEM) containing 10% fetal bovine serum, 2 mM L-glutamine and 0.5 mg/mL G-418.
(§2) Membranes were isolated from transfected cells as follows. Monolayers of cultured cells were washed twice with phosphate-buffered saline (PBS). Cells were scraped into 20 mM HEPES, pH 7.4, 10 mM EDTA containing complete cocktail protease inhibitors (Roche, Catalog #11 697 498 001), and were homogenized by an electric-powered mechanical probe homogenizer (Omni GLH; probe G7-195S) for 40 seconds at 7000 rpm. Homogenates were centrifuged 10 minutes at 1000×g at 4° C. The supernatant was collected and was centrifuged for 1 hour at 40,000×g. The supernatant was then decanted and the resulting pellet was re-suspended in 20 mM HEPES, pH 7.4, 5 mM MgCl2, 1 mM EDTA, 10% sucrose with complete cocktail protease inhibitors. Protein concentration of membrane suspensions were measured by Bradford Protein Assay using bovine serum albumin as the standard (BioRad catalog #500-0006). Protein concentrations of membrane suspensions were adjusted with the final buffer in the range of 5 to 10 mg/mL and were stored at −80° C. until further use.
Radioligand binding assays were performed by incubating membranes (2-10 μg protein) prepared from HEK-293 cells expressing recombinant human cannabinoid receptors, CB 1 or CB2, at room temperature with 0.5 nM cannabinoid receptor agonist, [^3H]-CP 55,940 (Perkin Elmer, catalog #NET 1051) in 0.2 mL of binding buffer (50 mM Tris-HCl, pH 7.5, 5 mM MgCl2, 2.5 mM EDTA) and 0.1% fatty acid free bovine serum albumin (Sigma Cat. #A0821) for 90 minutes. A rapid filtration technique using Millipore FB filter plates (Catalog #MADVNOB) and filtration apparatus (Millipore system Catalog MAVM0960R) with vacuum aspiration was used to harvest and rinse labeled membranes (8 times with 0.2 mL of chilled binding buffer). The radioactivity bound to the filters was counted with 0.05 mL of liquid scintillant (UltraGold MV, PerkinElmer catalog #6013159) in a scintillation counter (Perkin Elmer Microbeta instrument). Nonspecific binding was determined in the presence of unlabeled 1 μM CP 55,940 (Sigma Aldrich, catalog #C1112). Binding data were analyzed using GraphPad Prism (GraphPad Software, Inc. San Diego, Calif.).

hCB2 [2] = target: T2, hCB2 (Homo sapiens, UniProt P34972); assay: hCB2 cAMP agonist assay (HEK-293 cells); format: cell-based
Experimental: as §1
cAMP assays were performed in HEK-293 cells stably expressing human CB 1 or CB2 receptors. […] Cells suspensions were centrifuged and the cells were washed once with PBS, were centrifuged again, and the cells were resuspended in HBSS (Hank's Balanced Salt Solution, Cellgro, Cat #21-022-CV) solution containing 10 mM HEPES and 0.1% fatty acid free BSA (Sigma, Cat #A0281). Cell suspensions were prepared at 1,500,000 cells per mL. Stock solutions of test substances (10 mM) in DMSO were diluted to 1 mM using 30% DMSO as diluent. Test substances of solutions (1 mM) were further diluted down to 3× of final assay concentrations in the above HBSS buffer containing 0.1% BSA in the presence of 90 uM forskolin (Sigma Cat#F6886). To perform the assay, 20 μL of cell suspension (1,500,000 cells/mL) were added to each well in 96 well plate and treated with 10 μL test substance solution diluted as described above. Cells and compounds were incubated at 37° C. for 30 minutes. Cells were lysed and cAMP concentration was measured using DiscoveRx-XS+ cAMP assay kit (DiscoveRx Corporation Ltd., Fremont, Calif., USA, Cat #90-0075-03), following the manufacturer's protocol. GraphPad Prism software was used to calculate EC50 values using sigmoidal dose response curve fitting. The maximal amount of cAMP produced by forskolin was defined as 100%.

hCB1 [3] = target: T1, hCB1; assay: hCB1 cAMP agonist assay (HEK-293 cells); format: cell-based
hCB2 [4] = target: T2, hCB2; assay: hCB2 radioligand binding assay ([3H]-CP 55,940 displacement); conditions: hCB2 IC50 (CP displ, nM, HEK), HEK membranes
Experimental: as §1
as §2, with “Cells were scraped into 20 mM HEPES, pH 7.4, 10 mM EDTA containing complete cocktail protease inhibitors (Roche, Catalog #11 697 498 001), and were homogenized by an electric-powered mechanical probe homogenizer (Omni GLH; probe G7-195S) for 40 seconds at 7000 rpm.” left out
A rapid filtration technique using Millipore FB filter plates (Catalog #MADVNOB) and filtration apparatus (Millipore system Catalog MAVM0960R) with vacuum aspiration was used to harvest and rinse labeled membranes (8 times with 0.2 mL of chilled binding buffer). […] Binding data were analyzed using GraphPad Prism (GraphPad Software, Inc. San Diego, Calif.).

hCB2 [5] = target: T2, hCB2; assay: hCB2 GTPγS agonist assay (HEK-293 membranes); format: biochemical
Experimental: as §1
as §2, with “Cells were scraped into 20 mM HEPES, pH 7.4, 10 mM EDTA containing complete cocktail protease inhibitors (Roche, Catalog #11 697 498 001), and were homogenized by an electric-powered mechanical probe homogenizer (Omni GLH; probe G7-195S) for 40 seconds at 7000 rpm.” left out
^35S GTPγS binding assays were performed by incubating recombinant cell membranes prepared above (5 μg) in the presence of scintillation proximity assay beads (SPA beads, Catalog #RPNQ0252 GE Healthcare, Buckinghamshire, England) in GTPγS binding buffer [50 mM HEPES (pH 7.4), 100 mM NaCl, 5 mM MgCl2, 0.001% saponin (Sigma catalog #S4521)] supplemented with 20 uM GDP (Sigma catalog #G7127) in the presence or absence of test compound. The reaction was carried out in 96-well microplates with 0.1 nM [^35S]GTPγS (specific activity=1250 Ci/mmol; Perkin Elmer catalog #NEG030X250UC) in a final volume of 100 μL. After a 90 min room temperature incubation, the reaction was analyzed using a scintillation counter (Perkin Elmer Microbeta instrument). Binding data were analyzed using GraphPad Prism.

[6] = cAMP agonist, HEK, 96-well, read-out: hCB1 EC50 (cAMP ag, nM, HEK (96-well))
[7] = cAMP agonist, HEK, 96-well, read-out: hCB2 EC50 (cAMP ag, nM, HEK (96-well))
[8] = GTPγS agonist, HEK membranes, read-out: hCB2 EC50 (GTPyS ag, nM, HEK)

T2 sequence (P34972 whole entry): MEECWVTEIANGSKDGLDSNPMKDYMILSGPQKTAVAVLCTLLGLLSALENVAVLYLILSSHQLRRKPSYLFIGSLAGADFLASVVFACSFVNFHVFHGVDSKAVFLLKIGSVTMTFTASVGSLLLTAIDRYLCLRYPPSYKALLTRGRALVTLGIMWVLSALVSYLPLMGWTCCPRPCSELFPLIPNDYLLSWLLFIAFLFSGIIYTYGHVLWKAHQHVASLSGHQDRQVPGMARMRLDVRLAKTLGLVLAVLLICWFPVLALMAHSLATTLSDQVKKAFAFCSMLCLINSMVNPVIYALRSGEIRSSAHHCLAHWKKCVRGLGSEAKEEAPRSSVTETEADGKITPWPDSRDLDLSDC
T1 sequence (P21554 whole entry): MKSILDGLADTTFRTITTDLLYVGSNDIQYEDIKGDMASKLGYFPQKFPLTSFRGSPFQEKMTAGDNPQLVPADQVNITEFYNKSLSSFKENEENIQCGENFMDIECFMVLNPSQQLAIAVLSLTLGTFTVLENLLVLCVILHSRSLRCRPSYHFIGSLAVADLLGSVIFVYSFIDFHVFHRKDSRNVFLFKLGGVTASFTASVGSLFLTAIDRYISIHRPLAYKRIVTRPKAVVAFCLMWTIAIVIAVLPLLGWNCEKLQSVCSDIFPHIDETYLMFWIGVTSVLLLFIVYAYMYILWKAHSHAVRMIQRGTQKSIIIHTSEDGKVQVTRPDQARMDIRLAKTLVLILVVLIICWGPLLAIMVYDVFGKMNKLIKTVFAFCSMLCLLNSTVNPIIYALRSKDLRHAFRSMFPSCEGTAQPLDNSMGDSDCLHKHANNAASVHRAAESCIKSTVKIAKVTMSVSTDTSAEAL

| Compound | IC50 (hCB1 [1]) | EC50 (hCB2 [2]) | EC50 (hCB1 [3]; [6]) | IC50 (hCB2 [4]) | EC50 (hCB2 [5]) | EC50 (hCB2 [2]; [7]) | EC50 (hCB2 [5]; [8]) | EC50 (hCB1 [3]) | hCB1 EC50 (cAMP ag, nM, HEK (96-well)) (hCB1 [3]; cAMP agonist, HEK, 96-well) | hCB1 EC50 (cAMP ag, nM HEK (24-well)) (hCB1 [3]; cAMP agonist, HEK, 24-well) |
| --- | --- | --- | --- | --- | --- | --- | --- | --- | --- | --- |
| CCCn1c(C(=O)c2cn(C)c3ccccc23)cc2ccsc21 [Compound I-47] | 100 to 1000 nM | < 100 nM | 100 to 1000 nM | < 100 nM | 100 to 1000 nM | – | – | – | – | – |
| CCCn1c(C)c(C(=O)c2cc3ccsc3n2CCC)c2c1CCCCC2 [Compound I-80] | 100 to 1000 nM | – | 1000 to 10000 nM | < 100 nM | – | < 100 nM | < 100 nM | – | – | – |
| CCCCn1c(C)c(C(=O)c2cc3ccsc3n2CCC)c2ccccc21 [Compound I-58] | 100 to 1000 nM | < 100 nM | – | < 100 nM | < 100 nM | – | – | < 100 nM | – | – |
| CCCn1c(C)c(C(=O)c2cc3cc(Cl)sc3n2CCC)c2ccccc21 [Compound I-49] | 1000 to 10000 nM | < 100 nM | – | < 100 nM | < 100 nM | – | – | – | NS (“Not Significant,” which means less than 30% agonist activity when compared to the positive control) | – |
| CCCn1c(C)c(C(=O)c2cc3ccsc3n2CC)c2cccc(OC)c21 [Compound I-36] | 100 to 1000 nM | < 100 nM | – | < 100 nM | < 100 nM | – | – | 100 to 1000 nM | – | – |
| CCCn1cc(C(=O)c2cc3ccsc3n2CC)c2ccncc21 [Compound I-23] | 1000 to 10000 nM | < 100 nM | – | < 100 nM | 100 to 1000 nM | – | – | – | NS (“Not Significant,” which means less than 30% agonist activity when compared to the positive control) | – |
| CCCn1c(C)c(C(=O)c2cc3ccsc3n2CCC)c2ccccc21 [Compound I-78] | 1000 to 10000 nM | < 100 nM | – | < 100 nM | < 100 nM | – | – | – | NS (“Not Significant,” which means less than 30% agonist activity when compared to the positive control) | NS (“Not Significant,” which means less than 30% agonist activity when compared to the positive control) |
| CCCn1c(C)c(C(=O)c2cc3ccsc3n2CC2CCOCC2)c2ccccc21 [Compound I-72] | 100 to 1000 nM | – | – | 100 to 1000 nM | – | < 100 nM | 100 to 1000 nM | – | NS (“Not Significant,” which means less than 30% agonist activity when compared to the positive control) | – |
| CCn1c(C(=O)c2c(C)n(CCN3CCOC3=O)c3ccccc23)cc2ccsc21 [Compound I-25] | > 10000 nM | – | 1000 to 10000 nM | < 100 nM | – | < 100 nM | < 100 nM | – | – | – |
| CCCn1c(C(=O)c2c(C)n(CCN3CCOCC3)c3ccccc23)cc2ccsc21 [Compound I-73] | 100 to 1000 nM | < 100 nM | – | < 100 nM | < 100 nM | – | – | 100 to 1000 nM | – | – |
| CCCn1c(C(=O)c2c(C)n(CCC)c3sccc23)cc2ccccc21 [Compound I-14] | 100 to 1000 nM | 100 to 1000 nM | – | 100 to 1000 nM | 100 to 1000 nM | – | – | – | NS (“Not Significant,” which means less than 30% agonist activity when compared to the positive control) | – |
| CCn1c(C(=O)c2c(C)n(CCCNS(C)(=O)=O)c3ccccc23)cc2ccsc21 [Compound I-19] | 1000 to 10000 nM | – | – | < 100 nM | – | < 100 nM | < 100 nM | – | NS (“Not Significant,” which means less than 30% agonist activity when compared to the positive control) | – |
| CCCn1cc(C(=O)c2cc3ccsc3n2CC)c2cnccc21 [Compound I-22] | 1000 to 10000 nM | < 100 nM | – | 100 to 1000 nM | 100 to 1000 nM | – | – | – | NS (“Not Significant,” which means less than 30% agonist activity when compared to the positive control) | – |
| CCCn1c(C)c(C(=O)c2cc3scnc3n2CC)c2ccccc21 [Compound I-31] | 1000 to 10000 nM | < 100 nM | – | 100 to 1000 nM | 100 to 1000 nM | – | – | – | NS (“Not Significant,” which means less than 30% agonist activity when compared to the positive control) | – |
